Reference: ChEMBL document CHEMBL5241085, “Pyrazolotriazines: Biological activities, synthetic strategies and recent developments” (Eur J Med Chem, 2021)
pEC50, pIC50: −log10 of the molar value. ≈ marks a conversion by molar mass, not a printed value.

Legend:
[1] = biological target: T1, Calcitonin gene-related peptide 1 (Homo sapiens, UniProt P06881); test: Inhibition of CGRP (unknown origin)
T1 sequence (P06881 whole entry): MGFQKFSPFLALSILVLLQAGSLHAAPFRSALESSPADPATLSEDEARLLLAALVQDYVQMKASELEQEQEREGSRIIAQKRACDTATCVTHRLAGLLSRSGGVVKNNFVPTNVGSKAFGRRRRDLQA

Entamoeba histolytica = test: Antiparasitic activity against Entamoeba histolytica HM1:1MSS assessed as parasitic growth inhibition by microdilution method; type: functional, organism-based
MDA-MB-231 = test: Cytotoxicity against human MDA-MB-231 cells assessed as reduction in cell viability at 100 uM by MTT assay; type: functional, cell-based
A549 [2] = test: Cytotoxicity against human A549 cells assessed as reduction in cell viability at 100 uM by MTT assay; type: functional, cell-based
Tyrosinase = biological target: T2, Tyrosinase (Homo sapiens, UniProt P14679); test: Inhibition of tyrosinase (unknown origin) incubated for 20 mins
T2 sequence (P14679 whole entry): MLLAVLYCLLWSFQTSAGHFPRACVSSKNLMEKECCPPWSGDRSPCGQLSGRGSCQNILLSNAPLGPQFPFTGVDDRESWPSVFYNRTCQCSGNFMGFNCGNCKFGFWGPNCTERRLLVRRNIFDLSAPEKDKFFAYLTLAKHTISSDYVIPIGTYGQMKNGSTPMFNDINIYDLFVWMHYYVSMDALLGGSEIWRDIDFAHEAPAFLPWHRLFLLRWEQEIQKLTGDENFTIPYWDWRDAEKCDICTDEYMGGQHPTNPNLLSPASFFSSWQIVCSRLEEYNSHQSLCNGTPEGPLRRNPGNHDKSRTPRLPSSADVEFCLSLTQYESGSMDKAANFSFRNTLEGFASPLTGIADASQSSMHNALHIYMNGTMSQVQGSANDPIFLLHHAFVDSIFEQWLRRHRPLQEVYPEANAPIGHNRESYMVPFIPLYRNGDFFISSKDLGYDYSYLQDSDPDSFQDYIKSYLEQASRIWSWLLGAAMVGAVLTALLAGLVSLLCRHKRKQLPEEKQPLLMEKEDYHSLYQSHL

Dipeptidyl peptidase 4 [3] = biological target: T3, Dipeptidyl peptidase 4 (Homo sapiens, UniProt P27487); test: Inhibition of human DPP4
[4] = Antiproliferative activity against human NCI cells assessed as reduction in cell viability at 100 uM by MTT assay; type: functional; settings: read-out: GI
[5] = biological target: T4, Cyclin-dependent kinase 2 (Homo sapiens, UniProt P24941); test: Inhibition of CDK2 (unknown origin); settings: concentration not given here
[6] = biological target: T4, Cyclin-dependent kinase 2; test: Inhibition of human CDK2 at 10 uM
Dipeptidyl peptidase 4 [7] = biological target: T3, Dipeptidyl peptidase 4; test: Inhibition of DPP4 (unknown origin)
[8] = biological target: T5, Tyrosinase (Homo sapiens) (UniProt P14679); test: Inhibition of tyrosinase (unknown origin) relative to control; settings: concentration not given here
T5 sequence (whole entry): T2 sequence (P14679 whole entry)

[9] = biological target: T5, Tyrosinase (Homo sapiens); test: Inhibition of tyrosinase (unknown origin) assessed as enzyme residual activity at 0.07 mg/ml relative to control; values are per cent of control
[10] = Inhibition of urease (unknown origin) measured after 20 mins
[11] = Plasma protein binding in rhesus monkey; type: ADME, cell-free; settings: Macaca mulatta
[12] = Half life in dog at 1 mg/kg; type: ADME, organism-based, Canis lupus familiaris; settings: in vivo
[13] = Half life in rhesus monkey at 1 mg/kg, iv; type: ADME, organism-based, Macaca mulatta; settings: in vivo
[14] = Half life in human; type: ADME
[15] = Half life in Sprague-Dawley rat at 1 mg/kg; type: ADME, organism-based; settings: in vivo
[16] = biological target: GABA-A receptor; anion channel; test: In vivo receptor occupancy at GABAA receptor in po dosed Sprague-Dawley rat assessed as plasma concentration causing 50% reduction at 0.39 mg/kg measured after 48 hrs by LC/MS method; type: functional, organism-based
[17] = biological target: T6, Amine oxidase [flavin-containing] B (Homo sapiens, UniProt P27338); test: Inhibition of MAO-B (unknown origin)
T6 sequence (P27338 whole entry): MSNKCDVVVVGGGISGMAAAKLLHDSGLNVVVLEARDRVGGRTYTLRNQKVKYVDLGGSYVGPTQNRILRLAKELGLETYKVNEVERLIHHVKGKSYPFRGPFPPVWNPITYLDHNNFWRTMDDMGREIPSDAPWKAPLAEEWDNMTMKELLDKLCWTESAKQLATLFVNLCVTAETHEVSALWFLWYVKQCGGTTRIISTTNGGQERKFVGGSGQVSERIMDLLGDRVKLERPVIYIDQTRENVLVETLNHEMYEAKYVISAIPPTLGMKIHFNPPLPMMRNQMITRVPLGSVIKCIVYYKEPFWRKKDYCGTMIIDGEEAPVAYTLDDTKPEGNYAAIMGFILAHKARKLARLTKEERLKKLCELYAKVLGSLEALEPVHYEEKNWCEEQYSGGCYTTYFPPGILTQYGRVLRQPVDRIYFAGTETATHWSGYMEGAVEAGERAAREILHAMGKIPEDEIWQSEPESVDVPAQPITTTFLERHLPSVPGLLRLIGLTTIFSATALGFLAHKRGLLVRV

A549 [18] = test: Antiproliferative activity against human A549 cells; type: functional, cell-based
[19] = biological target: T7, Purine nucleoside phosphorylase (Homo sapiens, UniProt P00491); test: Inhibition of PNP (unknown origin) expressed in Escherichia coli
T7 sequence (P00491 whole entry): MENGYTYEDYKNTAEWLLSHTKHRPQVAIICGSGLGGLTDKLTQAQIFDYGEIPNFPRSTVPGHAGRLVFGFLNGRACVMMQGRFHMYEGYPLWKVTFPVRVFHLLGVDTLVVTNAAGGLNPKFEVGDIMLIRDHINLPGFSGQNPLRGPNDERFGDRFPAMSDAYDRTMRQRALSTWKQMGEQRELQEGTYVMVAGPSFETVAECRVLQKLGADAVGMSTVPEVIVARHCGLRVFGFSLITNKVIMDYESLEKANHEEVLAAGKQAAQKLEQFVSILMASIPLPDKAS

[20] = Oral bioavailability in rhesus monkey at 21 mg/kg; type: ADME, organism-based, Macaca mulatta; settings: in vivo
[21] = biological target: T8, Glucose-dependent insulinotropic receptor (Homo sapiens, UniProt Q8TDV5); test: Inhibition of GPR119 (unknown origin) at 10 uM
T8 sequence (Q8TDV5 whole entry): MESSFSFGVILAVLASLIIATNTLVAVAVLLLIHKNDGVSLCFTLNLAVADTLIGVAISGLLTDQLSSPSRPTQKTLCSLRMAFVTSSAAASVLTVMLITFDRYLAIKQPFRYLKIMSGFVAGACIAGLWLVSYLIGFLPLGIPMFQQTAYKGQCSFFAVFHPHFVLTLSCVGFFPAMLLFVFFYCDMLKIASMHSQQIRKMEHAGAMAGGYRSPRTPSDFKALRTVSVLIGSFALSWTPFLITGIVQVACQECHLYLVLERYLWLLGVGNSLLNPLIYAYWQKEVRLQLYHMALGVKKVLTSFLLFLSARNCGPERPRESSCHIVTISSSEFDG

T3 sequence (P27487 whole entry): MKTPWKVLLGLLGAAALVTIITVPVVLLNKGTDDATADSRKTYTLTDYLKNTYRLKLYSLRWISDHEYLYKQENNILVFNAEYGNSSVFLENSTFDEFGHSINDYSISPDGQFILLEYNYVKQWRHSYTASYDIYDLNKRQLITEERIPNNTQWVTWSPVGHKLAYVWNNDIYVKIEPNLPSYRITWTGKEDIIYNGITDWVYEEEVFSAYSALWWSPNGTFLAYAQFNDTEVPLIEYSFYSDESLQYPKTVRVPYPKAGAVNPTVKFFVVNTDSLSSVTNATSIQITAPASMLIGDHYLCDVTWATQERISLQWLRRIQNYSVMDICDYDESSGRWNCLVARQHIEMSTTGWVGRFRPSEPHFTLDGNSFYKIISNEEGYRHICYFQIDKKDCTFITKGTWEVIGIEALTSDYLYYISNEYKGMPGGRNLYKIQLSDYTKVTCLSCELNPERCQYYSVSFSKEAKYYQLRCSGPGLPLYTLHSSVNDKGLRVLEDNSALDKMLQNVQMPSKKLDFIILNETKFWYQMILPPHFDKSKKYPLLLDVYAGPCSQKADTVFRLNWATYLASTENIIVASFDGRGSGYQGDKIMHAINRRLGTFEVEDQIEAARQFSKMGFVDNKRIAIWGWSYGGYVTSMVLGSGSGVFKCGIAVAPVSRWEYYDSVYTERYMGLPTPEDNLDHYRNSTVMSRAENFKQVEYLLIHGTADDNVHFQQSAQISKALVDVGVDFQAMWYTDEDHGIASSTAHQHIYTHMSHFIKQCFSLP

## CN(C)CCCNc1nc(N)nc2cc(-c3ccccc3)nn12
[1]
  pIC50: 4.28

## Cc1nnc2n(NC(=S)NC3C4CC5CC(C4)CC3C5)c(C)nnc1-2 (centres undefined)
Entamoeba histolytica
  pIC50: 6.27

## O=c1[nH]c(=O)n([C@H]2C[C@H](O)[C@@H](CO)O2)cc1F [FLOXURIDINE]
MDA-MB-231
  pIC50: 4.42
A549 [2]
  pIC50: 5.24

## Cc1nnc2n(NC(=S)NC3CCCCC3)c(C)nnc1-2
Entamoeba histolytica
  pIC50: 6.09

## CCOc1ccc(S(=O)(=O)N[C@@H](CO)CC(C)C)cc1-c1nnc2c(n1)c(C)nn2C
Tyrosinase
  pIC50: 4.55

## CCOC(=O)c1cnn2c(=O)c([N+](=O)[O-])n[nH]c12
Dipeptidyl peptidase 4 [3]
  pIC50: 3.21

## O=C(NCCc1ccccc1)c1cnn2c(-c3ccc(Cl)cc3)nc(NCCc3ccccc3)nc12
[4]
  inhibition of growth at 100 µM: 33.3%
[5]
  inhibition: 82%
[6]
  pIC50: 5.68

## CCOC(=O)c1n[nH]c2c(C(=O)OCC)cnn2c1=O
Dipeptidyl peptidase 4 [7]
  pIC50: 4.27

## CCOc1ccc(S(=O)(=O)NCCN)cc1-c1nnc2c(n1)c(C)nn2C
[8]
  inhibition: 3.7%
[9]
  residual activity: 96.3%

## CCOC(=O)c1cnn2c(=O)c(C(=O)NC(C)(C)C)n[nH]c12
Dipeptidyl peptidase 4 [7]
  pIC50: 4.32

## Cc1ccc(Nc2nc(N)nc3cc(-c4ccccc4)nn23)cc1
[1]
  pIC50: 5.12

## CCOc1ccc(S(=O)(=O)NC[C@@H](C)O)cc1-c1nnc2c(n1)c(C)nn2C
[10]
  pIC50: 7.36

## N#Cc1cnn2c(=O)c([N+](=O)[O-])n[nH]c12
Dipeptidyl peptidase 4 [3]
  pIC50: 4.21

## CCOc1ccc(S(=O)(=O)N[C@@H](C)CO)cc1-c1nnc2c(n1)c(C)nn2C
[10]
  pIC50: 7.43

## Cc1cc(-c2nncc3c(C(C)(C)C)c(OCc4ncnn4C)nn23)no1
[11]
  EC50: 0.021 µg/mL (≈ 0.057 µM)
[12]
  half-life: 30 min
[13]
  half-life: 18 min
[14]
  half-life: 210 min
[15]
  half-life: 30 min
[16]
  pEC50: 7.39

## CCSc1nc(-c2ccc(C)cc2)n2nc(C)cc2n1
[17]
  pIC50: 4.61

## CCOc1ccc(S(=O)(=O)N[C@H](C)CO)cc1-c1nnc2c(n1)c(C)nn2C
Tyrosinase
  pIC50: 4.51

## NC(N)=S [THIOUREA]
[10]
  pIC50: 4.68

## Cc1nnc2n(NC(=S)NC3CCCCCCC3)c(C)nnc1-2
Entamoeba histolytica
  pIC50: 6.09

## CCOC(=O)c1cnn2c(-c3ccc(Cl)cc3)nc(NCc3ccccc3)nc12
[4]
  inhibition of growth at 100 µM: 41.8%
[5]
  inhibition: 82.4%
[6]
  pIC50: 5.73

## CCOc1ccc(S(=O)(=O)N[C@H](CO)CC(C)C)cc1-c1nnc2c(n1)c(C)nn2C
[10]
  pIC50: 7.38

## N/C(=N\O)c1cnn2c(=O)c([N+](=O)[O-])n[nH]c12
Dipeptidyl peptidase 4 [3]
  pIC50: 4.20

## O=c1cc2nc(-c3ccccc3)nc(SCCc3ccccc3)n2[nH]1
A549 [18]
  pIC50: 4.28

## Cc1ncc([N+](=O)[O-])n1CCO [METRONIDAZOLE]
Entamoeba histolytica
  pIC50: 5.74

## CSC1=NNC2NN=C(C)C2=N1 (centres undefined)
[19]
  pIC50: 4.40

## COCC(COC)Nc1nc(C)nc2c(-c3ccc(Cl)cc3Cl)c(C)nn12
[20]
  bioavailability: 50%

## Nc1nc(Nc2ccc(F)cc2)n2nc(-c3ccccc3)cc2n1
[21]
  pIC50: 4.74
[1]
  pIC50: 4.29
